{"source": "ChEMBL document CHEMBL1255428", "about": "“Characterization of UDP-glucose dehydrogenase and UDP-glucose pyrophosphorylase mutants of Proteus mirabilis: defectiveness in polymyxin B resistance, swarming, and virulence” (2010)", "key": {"Proteus mirabilis [1]": {"test_system": "Proteus mirabilis", "test": "Antimicrobial activity against wild type Proteus mirabilis N2 after 16 to 18 hrs by broth micro dilution assay", "type": "functional"}, "Proteus mirabilis [2]": {"test_system": "Proteus mirabilis", "test": "Antimicrobial activity against Proteus mirabilis dU2 knockout mutant after 16 to 18 hrs by broth micro dilution assay", "type": "functional"}, "Proteus mirabilis [3]": {"test_system": "Proteus mirabilis", "test": "Antimicrobial activity against Proteus mirabilis dG1 knockout after 16 to 18 hrs by broth micro dilution assay", "type": "functional"}, "Proteus mirabilis [4]": {"test_system": "Proteus mirabilis", "test": "Antimicrobial activity against Proteus mirabilis dU2 knockout mutant transformed with pACYC184-ugd after 16 to 18 hrs by broth micro dilution assay", "type": "functional"}, "Proteus mirabilis [5]": {"test_system": "Proteus mirabilis", "test": "Antimicrobial activity against Proteus mirabilis dG1 knockout mutant transformed with pACYC184-galU after 16 to 18 hrs by broth micro dilution assay", "type": "functional"}, "Proteus mirabilis [6]": {"test_system": "Proteus mirabilis", "test": "Induction of Ugd expression in wild type Proteus mirabilis N2 at 1 ug/ml by real-time RT-PCR analysis", "type": "functional, organism-based"}, "Proteus mirabilis [7]": {"test_system": "Proteus mirabilis", "test": "Induction of Ugd expression in Proteus mirabilis dA10 rppA knockout mutant at 1 ug/ml by real-time RT-PCR analysis", "type": "functional, organism-based"}, "Proteus mirabilis [8]": {"test_system": "Proteus mirabilis", "test": "Induction of Ugd expression in wild type Proteus mirabilis dA10c RppA-complemented strain at 1 ug/ml by real-time RT-PCR analysis", "type": "functional, organism-based"}}, "note": "The source made the active and inactive calls. The calls are words filed in the database; no cut-off is given here.", "data": [{"compound": "CCCCCCCCCCCCOS(=O)(=O)[O-].[Na+]", "note": "[SODIUM LAURYL SULFATE]", "values": [{"measurement": "MIC", "setting": "Proteus mirabilis [1]", "value": 2000, "unit": "µg/mL"}, {"measurement": "MIC", "setting": "Proteus mirabilis [2]", "value": 500, "unit": "µg/mL"}, {"measurement": "MIC", "setting": "Proteus mirabilis [3]", "value": 500, "unit": "µg/mL"}, {"measurement": "MIC", "setting": "Proteus mirabilis [4]", "value": 2000, "unit": "µg/mL"}, {"measurement": "MIC", "setting": "Proteus mirabilis [5]", "value": 2000, "unit": "µg/mL"}]}, {"compound": "POLYMYXIN B", "values": [{"measurement": "MIC", "setting": "Proteus mirabilis [2]", "value": 2, "unit": "µg/mL"}, {"measurement": "MIC", "setting": "Proteus mirabilis [3]", "value": 4, "unit": "µg/mL"}, {"measurement": "Activity", "setting": "Proteus mirabilis [6]", "value": "Active"}, {"measurement": "Activity", "setting": "Proteus mirabilis [7]", "value": "Active"}, {"measurement": "Activity", "setting": "Proteus mirabilis [8]", "value": "inactive"}]}]}
